Patent publication US9486507B2, “Pro-coagulant compounds and methods of use thereof” (priority 2011, dated 2016)
Values joined by “and” are separate entries in the source; they are usually repeats but may differ in a detail not shown here. Equal entries are not always repeated.

Assays:
Format in all cases: biochemical
[1] = tested on: FVIII deficient human plasma; experiment: Thrombin generation assay (TGA) in FVIII-deficient plasma; settings: for Thrombin Above Baseline (nM): HRF FVIII-deficient plasma (1)
FVIIa = biological target: T1, FVIIa (Homo sapiens, UniProt P08709); experiment: Km/Kcat of FVIIa for the substrate FX (FXa generation assay); settings: presence vs absence of compound 5
T1 construct: The two-chain Factor VIIa is a polypeptide produced from FVII by hydrolysis of the Arg152-Ile153 peptide bond of FVII; purchased Haematologic Technologies
T1 sequence (P08709 61-212 limits assumed): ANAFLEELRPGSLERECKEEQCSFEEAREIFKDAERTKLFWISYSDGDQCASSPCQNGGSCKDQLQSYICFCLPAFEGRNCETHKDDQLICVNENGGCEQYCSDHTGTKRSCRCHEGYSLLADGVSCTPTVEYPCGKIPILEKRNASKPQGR
T1 sequence (P08709 213-466 limits assumed): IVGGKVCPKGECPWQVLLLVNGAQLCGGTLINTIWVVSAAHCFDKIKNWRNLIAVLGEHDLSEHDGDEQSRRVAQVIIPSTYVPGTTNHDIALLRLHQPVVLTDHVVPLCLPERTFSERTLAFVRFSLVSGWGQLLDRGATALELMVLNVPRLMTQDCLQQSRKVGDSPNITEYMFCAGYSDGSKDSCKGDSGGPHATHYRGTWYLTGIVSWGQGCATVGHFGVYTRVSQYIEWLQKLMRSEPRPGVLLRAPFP
Experimental: Similarly, in order to measure the catalytic activity of FVIIa, a FXa generation assay measuring the ability of the compounds of the present disclosure to enhance the catalytic activity of FVIIa was established. The difference between the two assays was that the final concentration of 10 nM hFIXa was replaced with 10 nM hFVIIa. The remaining reagents and assay procedures described above were unchanged.
To determine the Km and Kcat of FIXa or FVIIa for the substrate FX, the FXa generation assay described above was used with the following modifications. A single peptide concentration was tested (typically one that gave the maximal rate of FXa generation) and the concentration of all assay components was similar to that described above with the exception of FX. Reactions were set up with varying concentrations of FX ranging between 400 and 0.8 nM and the rates of FXa generation were determined for each peptide at the different FX concentrations tested as described above. For each peptide assayed, the data were fitted to the following equation that gives the Michaelis-Menten constant (Km) and the Vmax for FIXa or FVIIa: v=Vmax [FX]/Km+[FX], wherein v is the rate of FXa generation determined as described above. The catalytic constant (Kcat) was calculated by normalizing the Vmax to the enzyme concentration.

[2] = tested on: canine FVIII-deficient plasma; experiment: ROTEM in canine FVIII-deficient plasma; settings: canine HemA plasma, lyophilized human platelets, 10 fM lipTF
[3] = tested on: FIX-deficient human plasma; experiment: ROTEM in FIX-deficient human plasma
Experimental: Compounds of the present disclosure were tested by rotational thromboelastometry to evaluate coagulation parameters such as clotting time (CT), α-angle, clot formation time (CFT), maximum clot firmness (MCF). Briefly, lyophilized and citrated FVIII deficient human plasma (Siemens) was reconstituted with 1 mL of distilled water, allowed to stand for 20 min at RT and mixed well before use. Alternatively, an aliquot of citrated (non-lyophilized) FVIII deficient human plasma (HRF, George King, Precision Biologics, or real-time donors) was thawed for 10 min in a 37° C. water bath and when needed centrifuged at 2800 g for 5 min at 25° C. FVIII deficient plasma was spiked with lyophilized platelets (Helena Laboratories, final concentration 0.5×10^8 cells/ml) and compounds, FVIII, or both compound and FVIII. Dilutions of compounds of the present disclosure and controls, such as FVIII, were prepared in PBS (—Ca, —Mg). Next, 300 μl of the spiked plasma was transferred to a ROTEM cup already containing 20 μl of StarTEM (concentrated calcium chloride solution) and 20 μl of lipidated TF (American Diagnostica, final concentration 10 fM) or Kaolin (Sigma-Aldrich, final concentration 0.4 μg/ml) and recording was initiated. The cups were maintained at 37° C. during the testing.

[4] = FIX-deficient plasma (containing platelets), 10 μM
[5] = FIX-deficient plasma, compound 5 2.5 μM + FIX-Fc 0.25 IU/mL
[6] = human HemB plasma, lyophilized platelets, 10 fM TF, 5 μM
[7] = human HemB plasma, lyophilized platelets, 10 fM TF, 10 μM
[8] = human HemB plasma, 5 μM, anti-FIX pab +
[9] = human HemB plasma, 5 μM, anti-FIX pab −
[10] = human HemB plasma, 10 μM, anti-FIX pab −

## rRAPGKLTCLASYCWLFWTGIA [Compound 5]
[1]; 0.1 pM lipidated TF, low amounts of rFVIII (FIG. 2)
  additive effect with FVIII on thrombin generation: shows additive thrombin generation activity with FVIII
[1]; 10 μM compound 5, 0.1 pM lipTF
  amount of thrombin generated, as rFVIII equivalent: about 0.2 IU/mL
[1]; 5 or 10 μM compound 5, 0.1 pM lipTF
  amount of thrombin generated, compared with FVIII: > 0.1 U/mL
[1]; 2.5 μM
  Thrombin Above Baseline (nM): + (1-10 nM (1) or 1-29 nM (2) (+))
[1]; 5 μM
  Thrombin Above Baseline (nM): + (1-10 nM (1) or 1-29 nM (2) (+))
[1]; 10 μM
  Thrombin Above Baseline (nM): ++ (11-20 nM (1) or 30-59 nM (2) (++))
[1]; 20 μM
  Thrombin Above Baseline (nM): ++ (11-20 nM (1) or 30-59 nM (2) (++))
[1]; compound 5 at 10 μM and 5 μM, 0.1 pM lipTF (FIG. 3)
  lag time: shorter lag time than 0.1 or 0.25 U/mL of FVIII
FVIIa
  Δ kcat FVIIa: 2419
[2]; 0.625 μM
  Clotting time: 687 s and 539 s
  α-angle, degrees: 12 degrees
[2]; 2.5 μM
  Clotting time: 346 s and 356 s
  α-angle, degrees: 15; 15 degrees
[2]; 5 μM
  Clotting time: 295 s and 369 s
  α-angle, degrees: 29 degrees and 28 degrees
[2]; 10 μM
  Clotting time: 286 s and 294 s
  α-angle, degrees: 58 degrees and 57 degrees
[3]; [4]
  Clotting time, sec: 1,311 sec and 1,328 sec
  α-angle, degrees: 15 degrees and 19 degrees
[3]; [5]
  Clotting time: 876.5 s
  α-angle: 39.5 degrees
[3]; [6]
  Clotting time: 836 s and 810 s
  α-angle, degrees: 24 degrees and 20 degrees
[3]; [7]
  Clotting time: 804 s and 773 s
  α-angle, degrees: 22 degrees and 21 degrees
[3]; [8]
  Clotting time, sec: 1,660 sec and 1,661 sec
  α-angle, degrees: 9 degrees
[3]; [9]
  Clotting time, sec: 1,420 sec and 1,556 sec
  α-angle, degrees: 11 degrees and 12 degrees
[3]; human HemB plasma, 10 μM, anti-FIX pab +
  α-angle, degrees: 13 degrees and 10 degrees
[3]; [10]
  Clotting time, sec: 1,182 sec and 1,194 sec
  α-angle, degrees: 12; 12 degrees
